Common to all, as to assay: KCNQ1-5 subtype selectivity of KCNQ2 potentiator, late-stage follow-up, selectivity assay for KCNQ2 potentiator project, cell-based, manual patch clamp, mode of action (AID 2415)
Experiment [1] deals with Potassium voltage-gated channel subfamily KQT member 4 (Homo sapiens) (UniProt P56696). Conditions: KCNQ channels in transfected CHO cells, manual whole-cell patch clamp current; measured here: KCNQ4 current ratio; at 10 µM; stronger effect = higher value. (The patch-clamp technique gives a direct electrical read-out from membranes.)
Sequence of Potassium voltage-gated channel subfamily KQT member 4 (Homo sapiens) (P56696 whole entry, looked up): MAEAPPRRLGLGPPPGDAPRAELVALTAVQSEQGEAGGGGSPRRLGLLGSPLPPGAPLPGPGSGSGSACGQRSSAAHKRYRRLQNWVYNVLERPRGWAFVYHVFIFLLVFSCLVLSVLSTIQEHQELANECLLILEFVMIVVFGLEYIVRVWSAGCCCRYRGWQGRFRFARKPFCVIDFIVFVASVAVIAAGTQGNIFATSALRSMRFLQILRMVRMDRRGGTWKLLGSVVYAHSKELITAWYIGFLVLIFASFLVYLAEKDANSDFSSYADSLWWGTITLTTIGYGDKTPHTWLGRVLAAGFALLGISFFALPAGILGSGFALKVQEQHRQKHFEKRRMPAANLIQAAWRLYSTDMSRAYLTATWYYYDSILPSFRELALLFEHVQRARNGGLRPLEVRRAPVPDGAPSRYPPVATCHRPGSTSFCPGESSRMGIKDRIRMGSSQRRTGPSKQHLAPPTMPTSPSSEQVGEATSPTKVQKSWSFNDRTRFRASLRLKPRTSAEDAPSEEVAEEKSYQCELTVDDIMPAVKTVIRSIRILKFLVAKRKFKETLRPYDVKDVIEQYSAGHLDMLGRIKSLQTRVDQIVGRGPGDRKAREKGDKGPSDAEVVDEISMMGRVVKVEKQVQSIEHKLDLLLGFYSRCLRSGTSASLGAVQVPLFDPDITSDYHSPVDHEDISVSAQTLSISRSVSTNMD
The target in experiment [2] is Potassium voltage-gated channel subfamily KQT member 1 (Homo sapiens) (UniProt P51787). Conditions: KCNQ channels in transfected CHO cells, manual whole-cell patch clamp current, at 10 µM.
Sequence of Potassium voltage-gated channel subfamily KQT member 1 (Homo sapiens) (P51787 whole entry, looked up): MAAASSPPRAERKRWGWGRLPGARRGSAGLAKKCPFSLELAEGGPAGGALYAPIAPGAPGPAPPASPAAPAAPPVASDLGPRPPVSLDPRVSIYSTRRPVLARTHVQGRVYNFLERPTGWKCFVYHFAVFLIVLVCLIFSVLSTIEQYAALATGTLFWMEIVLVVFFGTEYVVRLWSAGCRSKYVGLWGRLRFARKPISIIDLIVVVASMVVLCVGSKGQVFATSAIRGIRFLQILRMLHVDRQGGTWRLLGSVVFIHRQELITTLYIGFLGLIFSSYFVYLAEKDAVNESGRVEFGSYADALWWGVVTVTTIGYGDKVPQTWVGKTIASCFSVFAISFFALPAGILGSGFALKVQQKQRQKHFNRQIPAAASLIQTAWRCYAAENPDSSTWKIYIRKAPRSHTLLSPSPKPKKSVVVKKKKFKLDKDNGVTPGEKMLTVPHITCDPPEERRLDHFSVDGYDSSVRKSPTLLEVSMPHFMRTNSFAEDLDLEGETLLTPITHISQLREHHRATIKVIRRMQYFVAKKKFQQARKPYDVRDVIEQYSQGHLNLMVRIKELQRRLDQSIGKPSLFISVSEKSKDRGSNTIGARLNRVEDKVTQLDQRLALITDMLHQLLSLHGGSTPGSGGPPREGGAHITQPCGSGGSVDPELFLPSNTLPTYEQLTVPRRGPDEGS
The target of experiment [3] is Potassium voltage-gated channel subfamily KQT member 3 (Rattus norvegicus) (UniProt O88944). As to conditions: KCNQ channels in transfected CHO cells, manual whole-cell patch clamp current; measured here: KCNQ3 current ratio; at 10 µM; stronger effect = higher value.
Sequence of Potassium voltage-gated channel subfamily KQT member 3 (Rattus norvegicus) (O88944 whole entry, looked up): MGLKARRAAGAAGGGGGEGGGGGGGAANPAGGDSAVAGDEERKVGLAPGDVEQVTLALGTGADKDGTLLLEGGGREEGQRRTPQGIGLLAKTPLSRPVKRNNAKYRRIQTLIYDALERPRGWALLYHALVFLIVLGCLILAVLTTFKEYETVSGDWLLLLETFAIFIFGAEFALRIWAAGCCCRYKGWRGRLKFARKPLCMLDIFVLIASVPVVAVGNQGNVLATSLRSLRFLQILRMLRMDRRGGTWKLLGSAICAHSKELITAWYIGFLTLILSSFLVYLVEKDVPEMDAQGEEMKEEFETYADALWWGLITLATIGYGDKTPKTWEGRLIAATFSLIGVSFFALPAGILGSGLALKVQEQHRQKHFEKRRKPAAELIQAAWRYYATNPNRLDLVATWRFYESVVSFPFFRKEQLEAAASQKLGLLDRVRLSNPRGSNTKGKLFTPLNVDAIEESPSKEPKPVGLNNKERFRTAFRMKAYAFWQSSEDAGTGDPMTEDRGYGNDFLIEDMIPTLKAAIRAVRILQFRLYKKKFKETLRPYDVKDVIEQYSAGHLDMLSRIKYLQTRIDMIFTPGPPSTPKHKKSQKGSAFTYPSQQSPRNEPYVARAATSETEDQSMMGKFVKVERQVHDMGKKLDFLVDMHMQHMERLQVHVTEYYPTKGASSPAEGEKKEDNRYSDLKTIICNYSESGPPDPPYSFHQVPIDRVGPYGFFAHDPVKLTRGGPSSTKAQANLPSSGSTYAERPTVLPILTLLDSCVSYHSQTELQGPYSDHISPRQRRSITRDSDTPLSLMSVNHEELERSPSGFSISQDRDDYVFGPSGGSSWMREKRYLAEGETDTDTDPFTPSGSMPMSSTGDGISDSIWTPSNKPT
Experiment [4] concerns the target Potassium voltage-gated channel subfamily KQT member 2 (Rattus norvegicus) (UniProt O88943). Conditions: KCNQ channels in transfected CHO cells, manual whole-cell patch clamp current; measured here: KCNQ2 current ratio; at 10 µM; stronger effect = higher value.
In experiment [5] the target is Potassium voltage-gated channel subfamily KQT member 5 (Homo sapiens) (UniProt Q9NR82). As to conditions: KCNQ channels in transfected CHO cells, manual whole-cell patch clamp current; measured here: KCNQ5 current ratio; at 10 µM; stronger effect = higher value.
Sequence of Potassium voltage-gated channel subfamily KQT member 5 (Homo sapiens) (Q9NR82 whole entry, looked up): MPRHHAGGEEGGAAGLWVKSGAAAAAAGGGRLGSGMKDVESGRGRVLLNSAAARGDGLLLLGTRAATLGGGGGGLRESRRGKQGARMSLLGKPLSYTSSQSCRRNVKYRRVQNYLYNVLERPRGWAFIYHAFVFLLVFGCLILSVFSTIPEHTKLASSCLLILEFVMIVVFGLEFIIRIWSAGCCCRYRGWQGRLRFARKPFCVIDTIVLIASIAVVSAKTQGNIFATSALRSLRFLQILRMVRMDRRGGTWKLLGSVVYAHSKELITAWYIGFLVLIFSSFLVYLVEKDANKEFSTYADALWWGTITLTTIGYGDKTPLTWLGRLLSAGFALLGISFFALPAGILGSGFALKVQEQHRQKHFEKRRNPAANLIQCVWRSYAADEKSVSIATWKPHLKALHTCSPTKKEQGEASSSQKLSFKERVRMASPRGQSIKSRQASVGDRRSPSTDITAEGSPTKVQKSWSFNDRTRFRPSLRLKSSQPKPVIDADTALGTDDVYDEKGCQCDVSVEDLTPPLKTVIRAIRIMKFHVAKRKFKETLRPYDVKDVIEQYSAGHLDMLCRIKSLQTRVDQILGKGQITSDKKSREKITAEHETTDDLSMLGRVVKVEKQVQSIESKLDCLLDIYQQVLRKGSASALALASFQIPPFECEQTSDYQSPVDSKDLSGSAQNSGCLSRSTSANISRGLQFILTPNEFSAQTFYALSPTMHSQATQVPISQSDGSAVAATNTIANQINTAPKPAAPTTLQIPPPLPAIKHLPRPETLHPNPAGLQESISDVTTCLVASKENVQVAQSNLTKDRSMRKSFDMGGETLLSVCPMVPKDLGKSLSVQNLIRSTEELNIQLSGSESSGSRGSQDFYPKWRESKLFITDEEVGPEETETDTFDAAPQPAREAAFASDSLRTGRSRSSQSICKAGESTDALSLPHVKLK

Sequence of Potassium voltage-gated channel subfamily KQT member 2 (Rattus norvegicus) (O88943 whole entry, looked up): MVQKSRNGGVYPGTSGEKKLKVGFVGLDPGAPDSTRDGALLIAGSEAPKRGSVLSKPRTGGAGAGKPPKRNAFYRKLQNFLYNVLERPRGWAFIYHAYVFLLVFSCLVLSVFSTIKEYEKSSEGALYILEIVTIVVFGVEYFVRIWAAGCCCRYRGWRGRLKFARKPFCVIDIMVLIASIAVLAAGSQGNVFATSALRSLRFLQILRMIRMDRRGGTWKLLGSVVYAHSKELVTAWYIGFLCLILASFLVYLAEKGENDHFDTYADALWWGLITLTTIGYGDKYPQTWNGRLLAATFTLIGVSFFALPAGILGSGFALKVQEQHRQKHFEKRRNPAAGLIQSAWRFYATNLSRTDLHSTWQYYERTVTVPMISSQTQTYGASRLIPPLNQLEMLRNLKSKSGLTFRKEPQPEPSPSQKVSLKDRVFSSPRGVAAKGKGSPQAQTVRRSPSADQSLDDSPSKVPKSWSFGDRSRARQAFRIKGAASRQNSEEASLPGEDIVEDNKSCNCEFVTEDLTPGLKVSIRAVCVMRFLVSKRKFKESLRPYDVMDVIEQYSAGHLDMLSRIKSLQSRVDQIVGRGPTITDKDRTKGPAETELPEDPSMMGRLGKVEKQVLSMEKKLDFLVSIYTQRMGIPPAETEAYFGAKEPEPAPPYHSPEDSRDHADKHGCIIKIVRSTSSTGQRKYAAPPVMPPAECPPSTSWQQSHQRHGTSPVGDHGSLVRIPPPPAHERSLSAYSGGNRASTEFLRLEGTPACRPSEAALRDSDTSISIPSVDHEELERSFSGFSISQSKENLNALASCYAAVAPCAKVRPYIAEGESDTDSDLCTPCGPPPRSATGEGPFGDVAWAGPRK

For the compound `O=C(Nc1ccc(Cl)nc1)c1ccc(F)cc1`, the current ratio I/I0 in experiment [1] was determined as 2.4; in experiment [2] (stronger effect = higher value) it was 0.9; in experiment [3], 1; in experiment [4], 1.9; in experiment [5], 3.5. For the same compound, in experiment [2] (measured here: KCNQ2 deactivation time constant, stronger effect = higher value), the deactivation tau is 51.8 ms. Besides, the V1/2 in experiment [2] (measured here: KCNQ2 half activation voltage, stronger effect = lower value) is -16.6 mV.

The values are drawn from PubChem BioAssay AID2415 (Johns Hopkins Ion Channel Center, 2010).
